Measurements reported in US20190119200A1, “TERTIARY AMIDES AND METHOD OF USE” (AbbVie Inc., priority 2016, published 2019).

Key:
LPAR1 = biological target: T1, LPAR1 (Homo sapiens, UniProt Q92633); experiment: LPAR1 FLIPR Assay; format: cell-based; details: U2OS cells stably expressing LPAR1, LPA (EC80), Calcium 6 FLIPR dye; for Emax: read-out: Maximum Inhibition
T1 construct: host or cells: U2OS
Description: U2OS cells stably expressing LPAR1 (Life Technologies #K1519A) were plated at 12000 cells/well in growth medium (McCoy's 5A medium(Life Technologies 16600-082)) with 10% dFBS (Life Technologies 26400-036), 0.1 mM non-essential amino acids, 25 mM HEPES, 1 mM sodium pyruvate, 1% penicillin/streptomycin, 50 μg/mL hygromycin, and 100 μg/mL Geneticin® in black-walled, clear-bottom 384-well plates (Corning #3683) and incubated in humidified 5% CO2 at 37° C. overnight. On the day of the assay, medium was removed and 30 μL of 5% Calcium 6 FLIPR dye in assay buffer-HBSS (Life Technologies #14025) containing 20 mM HEPES (Life Technologies #15630-080) was added to the cells. Cells were incubated at 37° C. in the dark for 2 hours. Compounds were 3-fold serial diluted from 10 mM for 11-points using dimethyl sulfoxide. 1 μL of compound in DMSO was diluted in 82.3 μL assay buffer immediately before the assay. Using a FLIPR® TETRA® system, 15 μL of the (4×) compound solutions were first added to the cells, then 15 μL of LPA (EC80) diluted in of assay buffer supplemented with 0.1% BSA was added 3 minutes later to activate the receptor. Changes in fluorescence were measured at wavelengths of 515-575 nm over the course of the experimental run. IC50 values were calculated from curve fits of the ratio data using a four-parameter logistic Hill equation (Assay Explorer 3.3 Client).

[1] = tested on: LPA-induced MCP-1 in NRK-49F cells; experiment: LPA-induced MCP-1 AlphaLISA assay; format: cell-based; details: Rattus norvegicus, final LPA 10 μM, 7 hours; for Emax: read-out: Maximum Inhibition
Description: Two days prior to the experiment, NRK-49F cells were plated at 8,000 cells/well in 100 μL of growth medium [DMEM (Life Technologies #11995) with 5% dFBS (Life Technologies #30067-334), 100 units/mL penicillin/streptomycin (Life Technologies #15140122)] in 96-well clear flat bottom polystyrene TC-treated microplate (Corning® #3599) and incubated in humidified 10% CO2 at 37° C. One day prior to the experiment, the cell medium was removed and serum free medium [100 μL/well, DMEM (Life Technologies #11995) with 0.1% fatty acid free BSA (Sigma #A6003)] was added with continued incubation in humidified 10% CO2 at 37° C. overnight. On the day of the assay, test compounds were 1:3 serially diluted in 100% DMSO using a BioTek Precision™ system and then transferred (equivalent volume of DMSO as controls) to a plate in serum free medium [DMEM with 0.1% fatty acid free BSA] using a Biomek® NX workstation to give a 2× compound solution. The cell culture medium was removed, and cells were pre-treated with 50 μL/well of 2× compound in serum free medium [DMEM with 0.1% fatty acid free BSA] at 37° C. for 30 minutes. Following the incubation, 50 μL/well of 20 μM LPA diluted in serum free medium [DMEM with 0.1% fatty acid free BSA] was added to the cells. Serum free medium [DMEM with 0.1% fatty acid free BSA] was used as substitution for low control wells while 20 µM LPA was added to high control wells and test compound wells. 200 µM LPA was added to EC100 wells. Final DMSO concentration was 1% in every well. Final LPA concentration in test compound wells and high control wells was 10 μM. […] After the incubation, cell supernatant was transferred to a new 96 well polypropylene plate (Greiner #651201) where it was sealed and stored at −80° C. On the detection day, 5 μL of thawed cell supernatant was transferred to a new white opaque 384-well microplate (Perkin Elmer #6007299). An AlphaLISA® mouse/rat CCL2/MCP1, Immunoassay Research kit (PerkinElmer #AL509F) was used. A mixture (20 μL/well) of AlphaLISA® Anti-Analyte Accept beads (10 μg/mL final) and Biotinylated Antibody Anti-Analyte (freshly prepared, 1 nM final) was added. The mixture in the wells was mixed and then incubated at room temperature for 1 hour. Then SA-Donor beads (25 μL/well, 40 μg/mL final) were added giving a final volume of 50 μL/well. The contents of the wells were mixed and then incubated at room temperature for 0.5 hour (protect from light). The plate was read using the default Envision™ Alpha protocol (PerkinElmer). IC50 values were calculated from curve fits of the ratio data using a four-parameter logistic Hill equation (Assay Explorer 3.3 Client).

T1 sequence (Q92633 whole entry): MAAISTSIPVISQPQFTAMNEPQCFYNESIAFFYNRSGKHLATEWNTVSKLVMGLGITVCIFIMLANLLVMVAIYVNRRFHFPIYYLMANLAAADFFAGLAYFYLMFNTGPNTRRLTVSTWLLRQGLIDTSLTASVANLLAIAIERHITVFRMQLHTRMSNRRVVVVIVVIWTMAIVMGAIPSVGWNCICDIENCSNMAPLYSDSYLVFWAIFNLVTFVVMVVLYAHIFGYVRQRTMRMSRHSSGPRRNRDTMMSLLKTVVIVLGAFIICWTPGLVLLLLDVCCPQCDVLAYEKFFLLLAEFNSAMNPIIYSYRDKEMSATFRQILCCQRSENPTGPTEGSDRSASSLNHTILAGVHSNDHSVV

Row | SMILES | IC50 (LPAR1) [nM] | Emax (LPAR1) [%] | IC50 [1] [nM] | Emax [1] [%]
1 | COc1ccc(C2(C(=O)N(CCCc3ccccc3)CCOCC(=O)O)CC2)cc1 [Example 87, (2-{[1-(4-methoxyphenyl)cyclopropane-1-carbonyl](3-phenylpropyl)amino}ethoxy)acetic Acid] | 81 | 71 | 5440 | 62
2 | COc1cc(C(=O)N(CCCCC(=O)NS(=O)(=O)c2ccccc2)CCCc2ccccc2)cc(OC)c1C [Example 144, N-{5-[(benzenesulfonyl)amino]-5-oxopentyl}-3,5-dimethoxy-4-methyl-N-(3-phenylpropyl)benzamide] | 99 | 92 | 1090 | 96
3 | O=C(O)CCCCN(CCCc1ccccc1)C(=O)c1ccc2c(c1)OCO2 [Example 80, 5-[(2H-1,3-benzodioxole-5-carbonyl)(3-phenylpropyl)amino]pentanoic Acid] | > 30000 | 37 | > 10000 | 37
4 | COc1ccc(C2(C(=O)N(CCCCC(=O)O)CCCc3cccc(F)c3)CC2)cc1 [Example 92, 5-{[3-(3-fluorophenyl)propyl][1-(4-methoxyphenyl)cyclopropane-1-carbonyl]amino}pentanoic Acid] | 60 | 90 | 4490 | 72
5 | COc1cc(C(=O)N(CCCc2cc(Cl)cc(Cl)c2)CCOCC(=O)O)cc(OC)c1C [Example 127, (2-{[3-(3,5-dichlorophenyl)propyl](3,5-dimethoxy-4-methylbenzoyl)amino}ethoxy)acetic Acid] | > 10000 | 7 | > 10000 | 14
6 | COc1cc(OC(F)(F)F)cc(C(=O)N(CCCCC(=O)O)CCCc2ccccc2)c1 [Example 29, 5-{[3-methoxy-5-(trifluoromethoxy)benzoyl](3-phenylpropyl)amino}pentanoic Acid] | 309 | 79 |  | 
7 | Cc1cc(C(=O)N(CCCCC(=O)O)CCCc2ccccc2)c2c(C)noc2n1 [Example 172, 5-[(3,6-dimethyl[1,2]oxazolo[5,4-b]pyridine-4-carbonyl)(3-phenylpropyl)amino]pentanoic Acid] | 1460 | 63 |  | 
8 | COc1cc(C(=O)N(CCCCC(=O)NS(=O)(=O)c2ccc(F)cc2)CCCc2ccccc2)cc(OC)c1C [Example 140, N-{5-[(4-fluorobenzene-1-sulfonyl)amino]-5-oxopentyl}-3,5-dimethoxy-4-methyl-N-(3-phenylpropyl)benzamide] | 143 | 89 |  | 
9 | O=C(O)CCCCN(CCCc1ccccc1)C(=O)c1cc(Cl)cc(Cl)c1 [Example 12, 5-[(3,5-dichlorobenzoyl)(3-phenylpropyl)amino]pentanoic Acid] | 3240 | 55 |  | 
10 | CCOC1CC1(C(=O)N(CCCCC(=O)O)CCCc1ccccc1)c1ccc(OC)cc1 (stereo not shown) [Example 149, 5-{[2-ethoxy-1-(4-methoxyphenyl)cyclopropane-1-carbonyl](3-phenylpropyl)amino}pentanoic Acid] | 838 | 72 |  | 
11 | COc1cc(C(=O)N(CCCCC(=O)O)CCCc2ccccc2)nc(OC)n1 [Example 163, 5-[(2,6-dimethoxypyrimidine-4-carbonyl)(3-phenylpropyl)amino]pentanoic Acid] | 244 | 57 |  | 
12 | O=C(O)CCCCN(CCCc1ccccc1)C(=O)c1ccc2c(c1)OCCCO2 [Example 23, 5-[(3,4-dihydro-2H-1,5-benzodioxepine-7-carbonyl)(3-phenylpropyl)amino]pentanoic Acid] | 12600 | 53 |  | 
13 | COc1cc(C(=O)N(CCCCC(=O)O)CCCc2ccc(C)cc2)cc(OC)c1C [Example 42, 5-{(3,5-dimethoxy-4-methylbenzoyl)[3-(4-methylphenyl)propyl]amino}pentanoic Acid] | 236 | 90 |  | 
14 | Cc1c(Cl)cc(C(=O)N(CCCCC(=O)O)CCCc2ccccc2)cc1Cl [Example 16, 5-[(3,5-dichloro-4-methylbenzoyl)(3-phenylpropyl)amino]pentanoic Acid] | 985 | 70 |  | 
15 | COc1ccc(CCCN(CCCCC(=O)O)C(=O)c2cc(OC)c(C)c(OC)c2)cc1 [Example 43, 5-{(3,5-dimethoxy-4-methylbenzoyl)[3-(4-methoxyphenyl)propyl]amino}pentanoic Acid] | 23300 | 55 |  | 
16 | CCOc1cc(C(=O)N(CCCCC(=O)O)CCCc2ccccc2)ccn1 [Example 14, 5-[(2-ethoxypyridine-4-carbonyl)(3-phenylpropyl)amino]pentanoic Acid] | 942 | 41 |  | 

The next lines start with results.

Row | IC50 (LPAR1) [nM] | Emax (LPAR1) [%] | IC50 [1] [nM] | SMILES | Emax [1] [%]
17 | 32 | 87 | 1010 | COc1cc(C(=O)N(CCCc2c(F)cccc2F)CCSCC(=O)O)cc(OC)c1C [Example 113, [(2-{[3-(2,6-difluorophenyl)propyl](3,5-dimethoxy-4-methylbenzoyl)amino}ethyl)sulfanyl]acetic Acid] | 86
18 | 99 | 99 | 79 | COc1cc(C(=O)N(CCCc2ccccc2)CCCC(C)C(=O)NS(C)(=O)=O)cc(OC)c1C (stereo not shown) [Example 161, N-{5-[(methanesulfonyl)amino]-4-methyl-5-oxopentyl}-3,5-dimethoxy-4-methyl-N-(3-phenylpropyl)benzamide] | 88
19 | 54 | 89 | > 9350 | COc1cc(C(=O)N(CCCCC(=O)O)CCCc2ccccc2)ccc1[N+](=O)[O-] [Example 22, 5-[(3-methoxy-4-nitrobenzoyl)(3-phenylpropyl)amino]pentanoic Acid] | 42
20 | > 30000 | 60 |  | COc1cc(C(=O)N(CCCc2ccccc2)CCSCC(=O)O)cc(OC)c1F [Example 100, ({2-[(4-fluoro-3,5-dimethoxybenzoyl)(3-phenylpropyl)amino]ethyl}sulfanyl)acetic Acid] | 
21 | 127 | 83 |  | COc1cc(C(=O)N(CCCCC(=O)O)[C@H](C)CCc2ccccc2)cc(OC)c1C [Example 153, 5-{(3,5-dimethoxy-4-methylbenzoyl)[(2R)-4-phenylbutan-2-yl]amino}pentanoic Acid] | 
22 | 486 | 80 |  | COc1cc(C(=O)N(CCCc2ccccc2)C[C@H]2CCC(=O)O2)cc(OC)c1C [Example 181, 3,5-dimethoxy-4-methyl-N-{[(2R)-5-oxooxolan-2-yl]methyl}-N-(3-phenylpropyl)benzamide] | 
23 | 481 | 58 |  | COc1cc(C(=O)N(CCCCC(=O)O)CCCc2ccccc2)cc2ccoc12 [Example 24, 5-[(7-methoxy-1-benzofuran-5-carbonyl)(3-phenylpropyl)amino]pentanoic Acid] | 
24 | 247 | 78 |  | COc1cc(C(=O)N(CCCc2ccc(F)cc2)CCSCC(=O)O)cc(OC)c1C [Example 118, [(2-{(3,5-dimethoxy-4-methylbenzoyl)[3-(4-fluorophenyl)propyl]amino}ethyl)sulfanyl]acetic Acid] | 
